Among the data in patent US8143393B2, “Substituted 4-amino-pyrrolotriazine derivatives useful for treating hyper-proliferative disorders and diseases associated with angiogenesis” (Bayer HealthCare LLC, priority 2005, dated 2012) are IC50 values, retold here.

Assay [1] concerns histone 3 phosphorylation in colon carcinoma (HCT116). Kind of assay: p-Histone3 assay. In kind it is cell-based. To be noted: Homo sapiens, HCT-116, 24 h, HCT116, 24 h treatment. The procedure: Compounds were assayed for the inhibition of histone 3 phosphorylation in colon carcinoma (HCT116). Briefly, 20,000 cells/well were seeded in a 96-well black-walled, poly-d-lysine plates in RPMI+10% FBS and incubated at 37° C. in 5% CO2 overnight. The following day, the cells were treated with compounds for 24 hours at 37° C. Following compound treatment; plates were centrifuged at 1000 rpm for 2 minutes and washed twice with 100 μl of cold sterile TBS. Cells were then fixed with cold 3.7% formaldehyde in TBS (4° C. for 1 hour) and then permeabolized with 0.1% Triton-X-100 in TBS (room temperature for 30 minutes). Plates were then washed with of 0.25% BSA-TBS and blocked with BSA solution for 1 hour at room temperature while shaking. The supernatant was removed and replaced with diluted primary antibody (anti-phospho-histone 3, serine 10, Cell Signaling) at 1:250 in 0.25% BSA-TBS and incubated overnight at 4° C. The plates were washed and treated with diluted secondary antibody (anti-rabbit Eu-labeled) at 1:10000 in 0.25% BSA-TBS (room temperature for 1 hour). The antibody solution was removed from each well and washed eight times. The wash buffer was replaced with 50 μl pre-warmed enhancement solution and mixed on the orbital shaker for 10 minutes. Fluorescence was detected with a Victor V Fluorescence Detector. The data are expressed as percent inhibition: % inhibition=100−((Signal with inhibitor−background)/(Signal without inhibitor−background))−100.

In assay [2] the target is T1, FGFR-1 (Homo sapiens, UniProt P11362).
T1 construct: GST; made in house
T1 sequence (P11362 22-822): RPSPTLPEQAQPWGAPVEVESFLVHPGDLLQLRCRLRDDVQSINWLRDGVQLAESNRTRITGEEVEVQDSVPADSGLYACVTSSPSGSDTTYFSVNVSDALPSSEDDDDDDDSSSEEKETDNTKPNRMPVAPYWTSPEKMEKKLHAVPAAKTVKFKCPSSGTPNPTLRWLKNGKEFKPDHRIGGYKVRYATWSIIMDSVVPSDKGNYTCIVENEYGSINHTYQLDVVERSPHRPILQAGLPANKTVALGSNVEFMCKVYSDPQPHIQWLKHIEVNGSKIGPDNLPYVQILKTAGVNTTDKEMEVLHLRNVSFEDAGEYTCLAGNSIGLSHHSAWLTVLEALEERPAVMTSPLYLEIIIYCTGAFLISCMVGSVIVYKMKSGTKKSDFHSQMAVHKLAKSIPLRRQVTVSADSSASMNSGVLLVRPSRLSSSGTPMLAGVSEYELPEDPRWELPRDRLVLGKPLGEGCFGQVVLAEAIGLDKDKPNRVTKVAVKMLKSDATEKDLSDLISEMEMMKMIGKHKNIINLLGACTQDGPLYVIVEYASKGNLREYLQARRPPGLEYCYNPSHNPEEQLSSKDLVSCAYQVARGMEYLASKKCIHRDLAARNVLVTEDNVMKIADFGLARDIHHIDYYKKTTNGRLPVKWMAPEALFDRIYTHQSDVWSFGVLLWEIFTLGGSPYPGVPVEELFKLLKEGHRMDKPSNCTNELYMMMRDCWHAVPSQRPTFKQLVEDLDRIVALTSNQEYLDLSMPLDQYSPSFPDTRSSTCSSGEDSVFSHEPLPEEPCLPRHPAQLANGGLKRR
Kind of assay: FGFR-1 TR-FRET biochemical assay. The following applies: 0.6 uM ATP, 5 nM FGFR1-GST; bounds given in nM. The procedure, abridged: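 FGFR1-GST (5 nM) was incubated with poly GT-biotin (25 nM) and 0.6 uM ATP in HEPES pH 7.5/MgCl2 with 1% DMSO for 1 h at room temperature. Phosphorylation was read by LANCE TR-FRET (Eu-anti-pTyr/SA-APC, 665/615 ratio). Percent inhibition was background-corrected against no-ATP wells, with final compound concentrations of 10 μM–0.128 nM.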
In general terms: In TR-FRET formats the signal depends on donor and acceptor labels being close together.

Where [3] appears, read: lower bound of the bin 'greater than 500 nM but less than 5 μM'.

In general, IC50 refers to the concentration that inhibits the measured activity by half. A low value points to higher potency. On to `COc1cccc(NC(=O)Nc2ccc(-c3cc(CN4CCOCC4)n4ncnc(N)c34)cc2F)n1` [Example 72, N-4-[4-amino-7-(morpholin-4-ylmethyl)pyrrolo[2,1-f][1,2,4]triazin-5-yl]-2-fluorophenyl-N′-(6-methoxypyridin-2-yl)urea], for which the IC50 in assay [1] (bounds given in μM) was 5 to 10 µM.
With `CS(=O)(=O)N1CCN(Cc2cc(-c3ccc(NC(=O)Nc4cccc(Br)n4)cc3)c3c(N)ncnn23)CC1` [Example 94, N-[4-(4-amino-7-[4-(methylsulfonyl)piperazin-1-yl]methylpyrrolo[2,1-f][1,2,4]triazin-5-yl)phenyl]-N′-(6-bromopyridin-2-yl)urea], the IC50 in assay [1] (bounds given in μM) was less than 5 µM; in assay [1] (setting [3]) it was more than 0.5 µM.
On to `CC(=O)N1CCN(Cc2cc(-c3ccc(NC(=O)Nc4cc(C(F)(F)F)ccc4F)cc3)c3c(N)ncnn23)CC1` [Example 87, N-(4-{7-[(4-acetylpiperazin-1-yl)methyl]-4-aminopyrrolo[2,1-f][1,2,4]triazin-5-yl}phenyl)-N′-[2-fluoro-5-(trifluoromethyl)phenyl]urea], for which the IC50 is less than 5 µM in assay [1] (bounds given in μM) and more than 0.5 µM in assay [1] (setting [3]).
In the case of `COc1cc(NC(=O)Nc2cc(C(F)(F)F)ccc2F)ccc1-c1cc(CN2CCOCC2)n2ncnc(N)c12` [Example 37, N-{4-[4-amino-7-(morpholin-4-ylmethyl)pyrrolo[2,1-f][1,2,4]-triazin-5-yl]-3-methoxyphenyl}-N′-[2-fluoro-5-(trifluoromethyl)phenyl]urea], the IC50 in assay [2] lay within 10 to 100 nM.
Still for that read-out and setting: the result for `Nc1ncnn2c(CN3CCOCC3)cc(-c3ccc(NC(=O)Nc4cc(C(F)(F)F)ccn4)nc3)c12` [Example 12, N-{5-[4-amino-7-(morpholin-4-ylmethyl)pyrrolo[2,1-f][1,2,4]triazin-5-yl]pyridin-2-yl}-N′-[4-(trifluoromethyl)pyridin-2-yl]urea] reads less than 10 nM.
On the same count and under the same terms, the figure for `Nc1ncnn2c(C(=O)NCC3CNCCO3)cc(-c3ccc(NC(=O)Nc4cccc(C(F)(F)F)c4)c(F)c3)c12` (stereo not shown) [Example 293, 4-amino-5-{3-fluoro-4-[({[3-(trifluoromethyl)phenyl]-amino}carbonyl)amino]phenyl}-N-(morpholin-2-ylmethyl)pyrrolo[2,1-f][1,2,4]-triazine-7-carboxamide] is 10 to 100 nM.
The same measure, in the same setting: the figure for `Nc1ncnn2c(C3CCN(CC(=O)O)CC3)cc(-c3ccc(NC(=O)Nc4cc(C(F)(F)F)ccc4F)c(F)c3)c12` [Example 119, [4-(4-amino-5-3-fluoro-4-[([2-fluoro-5-(trifluoromethyl)-phenyl]aminocarbonyl)amino]phenylpyrrolo[2,1-f][1,2,4]triazin-7-yl)piperidin-1-yl]acetic acid] is less than 10 nM; for `COc1cc(NC(=O)Nc2cc(C(F)(F)F)ccn2)ccc1-c1cc(CN2CCOCC2)n2ncnc(N)c12` [Example 38, N-{4-[4-amino-7-(morpholin-4-ylmethyl)pyrrolo[2,1-f][1,2,4]triazin-5-yl]-3-methoxyphenyl}-N′-[4-(trifluoromethyl)pyridin-2-yl]urea] it is 10 to 100 nM; for `Cc1cc(NC(=O)Nc2cc(C(F)(F)F)ccc2F)c(F)cc1-c1cc(CN2CCOCC2)n2ncnc(N)c12` [Example 136, N-{4-[4-amino-7-(morpholin-4-ylmethyl)pyrrolo[2,1-f][1,2,4]triazin-5-yl]-2-fluoro-5-methylphenyl}-N′-[2-fluoro-5(trifluoromethyl)-phenyl]urea] it is 10 to 100 nM.
Turning to `COCCN1CCC(c2cc(-c3ccc(NC(=O)Nc4cc(C(F)(F)F)ccc4F)c(Cl)c3)c3c(N)ncnn23)CC1` [Example 241, N-(4-{4-amino-7-[1-(2-methoxyethyl)piperidin-4-yl]pyrrolo[2,1-f][1,2,4]triazin-5-yl}-2-chlorophenyl)-N′-[2-fluoro-5-(trifluoromethyl)phenyl]urea], the IC50 in assay [2] was less than 10 nM.
On the same count and under the same terms, the figure for `Nc1ncnn2c(CCO)cc(-c3ccc(NC(=O)Nc4cc(C(F)(F)F)ccc4F)c(F)c3)c12` [Example 220, N-{4-[4-amino-7-(2-hydroxyethyl)pyrrolo[2,1-f][1,2,4]triazin-5-yl]-2-fluorophenyl}-N′-[2-fluoro-5-(trifluoromethyl)phenyl]urea] is less than 10 nM.
The same measure, in the same setting: the result for `Nc1ncnn2c(CCCN3CCOCC3)cc(-c3cc(F)c(NC(=O)Nc4cc(C(F)(F)F)ccc4F)cc3F)c12` [Example 190, N-{4-[4-amino-7-(3-morpholin-4-ylpropyl)pyrrolo[2,1-f][1,2,4]triazin-5-yl]-2,5-difluorophenyl}-N′-[2-fluoro-5-(trifluoromethyl)phenyl]urea] reads less than 10 nM.
In assay [2], `CN1CCN(CCc2cc(-c3ccc(NC(=O)Nc4cc(C(F)(F)F)ccc4F)c(F)c3)c3c(N)ncnn23)CC1` [Example 214, N-(4-{4-amino-7-[2-(4-methylpiperazin-1-yl)ethyl]pyrrolo[2,1-f][1,2,4]triazin-5-yl}-2-fluorophenyl)-N′-[2-fluoro-5-(trifluoromethyl)phenyl]urea] gave a half-inhibitory concentration (IC50) of less than 10 nM.
Same read-out and setting: the result for `Nc1ncnn2c(CN3CCS(=O)(=O)CC3)cc(-c3ccc(NC(=O)Nc4cccc(C(F)(F)F)c4)c(F)c3)c12` [Example 77, N-(4-{4-amino-7-[(1,1-dioxidothiomorpholin-4-yl)methyl]pyrrolo[2,1-f][1,2,4]triazin-5-yl}-2-fluorophenyl)-N′-[3-(trifluoromethyl)phenyl]urea] reads less than 10 nM; that for `Nc1ncnn2c(CN3CCNC(=O)C3)cc(-c3ccc(NC(=O)Nc4cc(C(F)(F)F)ccn4)c(F)c3)c12` [Example 163, N-(4-{4-amino-7-[(3-oxopiperazin-1-yl)methyl]-pyrrolo [2,1-f][1,2,4]triazin-5-yl}-2-fluorophenyl)-N′-[4-(trifluoromethyl)-pyridin-2-yl]urea], less than 10 nM.
Regarding `Nc1ncnn2c(CCCCN3CCOCC3)cc(-c3ccc(NC(=O)Nc4cc(C(F)(F)F)ccc4F)c(F)c3)c12` [Example 224, N-{4-[4-amino-7-(4-morpholin-4-ylbutyl)pyrrolo[2,1-f][1,2,4]triazin-5-yl]-2-fluorophenyl}-N′-[2-fluoro-5-(trifluoromethyl)phenyl]urea], the IC50 in assay [2] is less than 10 nM.
Same read-out and setting: the figure for `Nc1ncnn2c(C3CCNCC3)cc(-c3ccc(NC(=O)Nc4cc(C(F)(F)F)ccc4F)c(F)c3)c12` [Example 111, N-[4-(4-amino-7-piperidin-4-ylpyrrolo[2,1-f][1,2,4]-triazin-5-yl)-2-fluorophenyl]-N′-[2-fluoro-5-(trifluoromethyl)phenyl]urea] is less than 10 nM; for `Nc1ncnn2c(CCCN3CCOCC3)cc(-c3ccc(NC(=O)Nc4cc(C(F)(F)F)ccc4F)c(F)c3)c12` [Example 109, N-{4-[4-amino-7-(3-morpholin-4-ylpropyl)pyrrolo[2,1-f][1,2,4]triazin-5-yl]-2-fluorophenyl}-N′-[2-fluoro-5-(trifluoromethyl)phenyl]urea] it is less than 10 nM; for `COc1cc(-c2cc(CN3CCOCC3)n3ncnc(N)c23)ccc1NC(=O)Nc1cc(C(C)(C)C)no1` [Example 30, N-{4-[4-amino-7-(morpholin-4-ylmethyl)pyrrolo[2,1-f][1,2,4]triazin-5-yl]-2-methoxyphenyl}-N′-(3-tert-butylisoxazol-5-yl)urea] it is 10 to 100 nM.
Same read-out and setting: the figure for `CC(=O)N1CCC(c2cc(-c3ccc(NC(=O)Nc4cc(C(F)(F)F)ccn4)c(F)c3)c3c(N)ncnn23)C1` (stereo not shown) [Example 205, N-{4-[7-(1-acetylpyrrolidin-3-yl)-4-aminopyrrolo[2,1-f][1,2,4]triazin-5-yl]-2-fluorophenyl}-N′-[4-(trifluoromethyl)pyridin-2-yl]urea] is less than 10 nM.
On the same count and under the same terms, the result for `Nc1ncnn2c(C(=O)NCC3CNCCO3)cc(-c3ccc(NC(=O)Nc4cc(C(F)(F)F)ccc4F)c(F)c3)c12` (stereo not shown) [Example 283, 4-amino-5-{3-fluoro-4-[({[2-fluoro-5-(trifluoromethyl)-phenyl]amino}carbonyl)amino]phenyl}-N-(morpholin-2-ylmethyl)pyrrolo[2,1-f][1,2,4]triazine-7-carboxamide] reads 10 to 100 nM.
With `Nc1ncnn2c(CN3CCNC(=O)C3)cc(-c3cc(F)c(NC(=O)Nc4cc(C(F)(F)F)ccc4F)cc3F)c12` [Example 164, N-(4-{4-amino-7-[(3-oxopiperazin-1-yl)methyl]-pyrrolo [2,1-f][1,2,4]triazin-5-yl}-2,5-difluorophenyl)-N′-[2-fluoro-5-(trifluoromethyl)phenyl]urea], in assay [2], the half-inhibitory concentration (IC50) is less than 10 nM.
Same read-out and setting: the figure for `Nc1ncnn2c(CN3CCNC(=O)C3)cc(-c3ccc(NC(=O)Nc4cc(C(F)(F)F)ccc4F)cc3)c12` [Example 39, N-(4-{4-amino-7-[(3-oxopiperazin-1-yl)methyl]pyrrolo[2,1-f][1,2,4]triazin-5-yl}phenyl)-N′-[2-fluoro-5-(trifluoromethyl)phenyl]urea] is less than 10 nM.
